From US12678446B2 (PFIZER INC., priority 2020, dated 2026)

Key:
[1] = test system: RSV (RSV A2 ECACC, 0709161v); assay: RSV plaque reduction assay; format: cell-based, respiratory syncytial virus; conditions: human respiratory syncytial virus, HepG2, read-out: RSV A2 Plaque EC50, RSV A2 in Hep-G2 cells; mean of at least two experiments unless noted (n = 1)
Experimental: Compounds w ere subjected to RSV plaque reduction assays according to the following protocol.
Hep-G2 cells (ECACC, 85011430) were passaged in flasks and seeded in 24-well plates in DMEM containing antibiotics and supplemented with 10% FBS. During inoculation and subsequent incubation, cells were cultured in DMEM containing 2% FBS. 100 plaque forming unit/well of RSV (RSV A2 ECACC, 0709161v) was mixed with eight serial dilutions of compound. Subsequently, 100 μL of the virus/compound mixtures was added to confluent Hep-G2 cell monolayers. The cells and virus/compound mixtures were incubated at 37° C. in a humidified 5% CO2 incubator for 2 h prior to removal of the inoculum and addition of 1 mL of overlay (DMEM containing 2% FBS and 0.8% CMC) containing compound dilutions. The cells and were incubated at 37° C. in a humidified 5% CO2 incubator for 2 days.
Cells were washed with PBS before adding 75/25% v/v EtOH MeOH, for 3 min. Fixative was removed and plates were washed with PBS. A pre-titrated amount of the primary antibody was added in 200 μL PBS/2% milk powder, and plates incubated for 90 min at 37° C. The plates were washed 3 times with PBS/0.05% Tween20 before addition of rabbit anti-goat horse radish peroxidase in 200 μL PBS/2% milk powder, and incubated for 1 h at 37° C. Following three wash steps with PBS/0.05% Tween20, 200 μL ready-to-use TrueBlue was added and plates were incubated at rt for 10-15 min before washing with water. After removal of water, plates were air-dried in the dark.
Plates were scanned and analysed using the Immunospot S6 Macro analyser, which is equipped with BioSpot analysis software for counting immunostained plaques (virospots). Plaque counts were used to calculate % infection relative to the mean of the plaque count in the virus control wells for RSV. […] Unless otherwise noted, plaque EC50 and cell toxicity CC50 values are a mean of at least two experiments and figures are rounded to whole units.

cell toxicity CC50 = format: cell-based; conditions: human; Hep-G2 cells; mean of at least two experiments; read-out: Cell Cytotoxicity CC50

SMILES	EC50 [1] [nM]	CC50 (cell toxicity CC50) [nM]
C[C@@H]1Cn2nc(-c3ccccc3F)c(C(=O)N[C@H]3N=C(c4ccccc4)c4ccccc4NC3=O)c2O1 [Example 202, (2R)-6-(2-Fluorophenyl)-2-methyl-N-[(3S)-2-oxo-5-phenyl-1,3-dihydro-1,4-benzodiazepin-3-yl]-2,3-dihydropyrazolo[5,1-b][1,3]oxazole-7-carboxamide]	127	> 25000
C[C@@H]1CCn2nc(-c3cncc(Cl)c3)c(C(=O)N[C@H]3N=C(c4ccccc4)c4cccc(F)c4NC3=O)c2O1 [Example 47, (5R)-2-(5-Chloropyridin-3-yl)-5-methyl-N-[(3S)-9-fluoro-2-oxo-5-phenyl-1,3-dihydro-1,4-benzodiazepin-3-yl]-6,7-dihydro-5H-pyrazolo[5,1-b][1,3]oxazine-3-carboxamide]	84	> 25000
O=C(N[C@H]1N=C(c2ccccc2)c2cccc(F)c2NC1=O)c1c(-c2ccc(F)cc2F)nn2c1S(=O)(=O)CCC2 [Example 32, 2-(2,4-Difluorophenyl)-N-[(3S)-9-fluoro-2-oxo-5-phenyl-2,3-dihydro-1H-1,4-benzodiazepin-3-yl]-4,4-dioxo-5H,6H,7H-4λ^6-pyrazolo[3,2-b][1,3]thiazine-3-carboxamide]	411	> 25000
CN(C)CC1COc2c(C(=O)N[C@H]3N=C(c4ccccc4)c4cccc(F)c4NC3=O)c(-c3ccccc3F)nn2C1 (stereo in doubt) [Example 171-1, (6R*)-6-[(Dimethylamino)methyl]-N-[(3S)-9-fluoro-2-oxo-5-phenyl-1,3-dihydro-1,4-benzodiazepin-3-yl]-2-(2-fluorophenyl)-6,7-dihydro-5H-pyrazolo[5,1-b][1,3]oxazine-3-carboxamide]	53	> 25000
CCCC1COc2c(C(=O)N[C@H]3N=C(c4ccccc4)c4cccc(F)c4NC3=O)c(-c3ccccc3F)nn2C1 (stereo partly drawn) [Example 14, N-[(3S)-9-fluoro-2-oxo-5-phenyl-2,3-dihydro-1H-1,4-benzodiazepin-3-yl]-2-(2-fluorophenyl)-6-propyl-5H,6H,7H-pyrazolo[3,2-b][1,3]oxazine-3-carboxamide]	36	> 25000
C[C@@H]1CCn2nc(-c3ccsc3)c(C(=O)N[C@H]3N=C(c4ccccc4)c4ccccc4NC3=O)c2O1 [Example 64, (5R)-5-Methyl-N-[(3S)-2-oxo-5-phenyl-1,3-dihydro-1,4-benzodiazepin-3-yl]-2-(3-thienyl)-6,7-dihydro-5H-pyrazolo[5,1-b][1,3]oxazine-3-carboxamide]	133	> 25000
C[C@@H]1CCn2nc(-c3ccoc3)c(C(=O)N[C@H]3N=C(c4ccccc4)c4cccc(F)c4NC3=O)c2O1 [Example 61, (5R)-N-[(3S)-9-fluoro-2-oxo-5-phenyl-1,3-dihydro-1,4-benzodiazepin-3-yl]-2-(3-furyl)-5-methyl-6,7-dihydro-5H-pyrazolo[5,1-b][1,3]oxazine-3-carboxamide]	161	> 25000
C[C@@H]1CCn2nc(-c3cnn(CCN(C)C)c3)c(C(=O)N[C@H]3N=C(c4ccccc4)c4cccc(F)c4NC3=O)c2O1 [Example 165, (5R)-2-[1-[2-(Dimethylamino)ethyl]pyrazol-4-yl]-N-[(3S)-9-fluoro-2-oxo-5-phenyl-1,3-dihydro-1,4-benzodiazepin-3-yl]-5-methyl-6,7-dihydro-5H-pyrazolo[5,1-b][1,3]oxazine-3-carboxamide]	349	> 25000
O=C(N[C@H]1N=C(c2ccccc2)c2cccc(F)c2NC1=O)c1c(-c2ccc(F)cc2F)nn2c1OCCC2 [Example 2, 2-(2,4-Difluorophenyl)-N-[(3S)-9-fluoro-2-oxo-5-phenyl-1,3-dihydro-1,4-benzodiazepin-3-yl]-6,7-dihydro-5H-pyrazolo[5,1-b][1,3]oxazine-3-carobxamide]	22	> 25000
C[C@@H]1CCn2nc(-c3ccc(S(N)(=O)=O)cc3F)c(C(=O)N[C@H]3N=C(c4ccccc4)c4cccc(F)c4NC3=O)c2O1 [Example 199, (5R)-N-[(3S)-9-Fluoro-2-oxo-5-phenyl-1,3-dihydro-1,4-benzodiazepin-3-yl]-2-(2-fluoro-4-sulfamoylphenyl)-5-methyl-6,7-dihydro-5H-pyrazolo[5,1-b][1,3]oxazine-3-carboxamide]	64	> 25000
C[C@@H]1CCn2nc(-c3ccsc3)c(C(=O)N[C@H]3N=C(c4ccccc4)c4cccc(F)c4NC3=O)c2O1 [Example 63, (5R)-N-[(3S)-9-fluoro-2-oxo-5-phenyl-1,3-dihydro-1,4-benzodiazepin-3-yl]-5-methyl-2-(3-thienyl)-6,7-dihydro-5H-pyrazolo[5,1-b][1,3]oxazine-3-carboxamide]	94	> 25000
O=C(N[C@H]1N=C(c2ccccc2)c2ccccc2NC1=O)c1nn2c(c1-c1ccccc1F)OCC2 [Example 37, 7-(2-Fluorophenyl)-N-[(3S)-2-oxo-5-phenyl-1,3-dihydro-1,4-benzodiazepin-3-yl]-2,3-dihydropyrazolo[5,1-b][1,3]oxazole-6-carboxamide]	333	> 25000
Cc1ccc(-c2nn3c(c2C(=O)N[C@H]2N=C(c4ccccc4)c4cccc(F)c4NC2=O)O[C@H](C)CC3)c(C)n1 [Example 58, (5R)-2-(2,6-Dimethyl-3-pyridyl)-N-[(3S)-9-fluoro-2-oxo-5-phenyl-1,3-dihydro-1,4-benzodiazepin-3-yl]-5-methyl-6,7-dihydro-5H-pyrazolo[5,1-b][1,3]oxazine-3-carboxamide]	188	> 25000
COc1cc(-c2nn3c(c2C(=O)N[C@H]2N=C(c4ccccc4)c4ccccc4NC2=O)O[C@H](C)CC3)ccn1 [Example 49, (5R)-2-(2-Methoxypyridin-4-yl)-5-methyl-N-[(3S)-2-oxo-5-phenyl-1,3-dihydro-1,4-benzodiazepin-3-yl]-6,7-dihydro-5H-pyrazolo[5,1-b][1,3]oxazine-3-carboxamide]	243	> 25000
CO[C@@H]1CCN(c2ccc(-c3nn4c(c3C(=O)N[C@H]3N=C(c5ccccc5)c5cccc(F)c5NC3=O)O[C@H](C)CC4)cn2)C1 [Example 145, (5R)-N-[(3S)-9-fluoro-2-oxo-5-phenyl-1,3-dihydro-1,4-benzodiazepin-3-yl]-2-[6-[(3R)-3-methoxypyrrolidin-1-yl]pyridin-3-yl]-5-methyl-6,7-dihydro-5H-pyrazolo[5,1-b][1,3]oxazine-3-carboxamide]	278	> 25000
COCCn1cc(-c2nn3c(c2C(=O)N[C@H]2N=C(c4ccccc4)c4cccc(F)c4NC2=O)O[C@H](C)CC3)cn1 [Example 119, (5R)-N-[(3S)-9-fluoro-2-oxo-5-phenyl-1,3-dihydro-1,4-benzodiazepin-3-yl]-2-[1-(2-methoxyethyl)pyrazol-4-yl]-5-methyl-6,7-dihydro-5H-pyrazolo[5,1-b][1,3]oxazine-3-carboxamide]	69	> 25000
C[C@@H]1CCn2nc(-c3ccc4c(cnn4C)c3)c(C(=O)N[C@H]3N=C(c4ccccc4)c4cccc(F)c4NC3=O)c2O1 [Example 83, (5R)-5-Methyl-2-(1-methylindazol-5-yl)-N-[(3S)-9-fluoro-2-oxo-5-phenyl-1,3-dihydro-1,4-benzodiazepin-3-yl]-6,7-dihydro-5H-pyrazolo[5,1-b][1,3]oxazine-3-carboxamide]	115	> 25000
